According to US9606124B2, “Methods of detecting and treating stem-cell containing solid tumors” (The Regents of The University of Michigan, priority 2008, dated 2017):
“Also recorded” adds a separate entry of the source. Read-outs that look alike come from different tables or passages of the source.

Assays:
[1] = test system: normal mammary epithelial cells; experiment: Mammosphere formation by normal mammary epithelial cells; assay type: cell-based, human; details: repertaxin 100 nM for four to fifteen days adherent, then suspension
[2] = test system: CXCR1-positive, CXCR1-negative and unsorted populations of SUM159 cells; experiment: MTT assay on flow sorted CXCR1-positive, CXCR1-negative and unsorted populations; assay type: cell-based, human; details: for cell viability of the unsorted / unseparated population: SUM159 cells
Protocol: Cell viability. […] Nuclei were counterstained with DAPI/antifade (Invitrogen).
(§1) Flow cytometry analysis. […] CD95/FAS staining were performed utilizing an anti-CD95 labeled APC (1:20, BD biosciences). […] Fresh cells were stained with 1 μg/ml PI (Sigma) for 5 min for viability.

SUM159 cells = experiment: Metastasis formation after intracardiac injection of SUM159 cells (bioluminescence); assay type: in vivo, NOD/SCID mice; details: 250,000 cells intracardiac, repertaxin 15 mg/kg s.c. twice a day 28 days vs saline
Protocol: A SUM159 cell line was infected with a lentivirus expressing luciferase and inoculated 250,000 luciferase infected cells in the heart of NOD/SCID mice. The mice were organized into two groups.
Intracardiac inoculation. Six weeks-old NOD/SCID mice were anesthetized with 2% isofluorane/air mixture and injected in the heart left ventricle with 250,000 cells in 100 μL of sterile Dulbecco's PBS lacking Ca2+ and Mg2+. […] Twelve hours after intracardiac injections, mice were begun on twice per day repertaxin injections or saline for the controls.
(§2) Bioluminescence detection. Baseline bioluminescence was assessed before inoculation and each week thereafter inoculations. Bioluminescence detection procedures was performed as previously described (Charafe-Jauffret et al. Cancer Res. 69:1302-1313, herein incorporated by reference in its entirety). Normalized photon flux represents the ratio of the photon flux detected each week after inoculations and the photon flux detected before inoculation.

MDA-MB-453 cells [3] = experiment: Metastasis formation after intracardiac injection of MDA-MB-453 cells (bioluminescence); assay type: in vivo, NOD/SCID mice; details: 250,000 cells intracardiac, repertaxin 15 mg/kg s.c. twice a day 28 days vs saline
Protocol: as §2, with “Intracardiac inoculation. […] Twelve hours after intracardiac injections, mice were begun on twice per day repertaxin injections or saline for the controls. Bioluminescence detection.” for “Bioluminescence detection.”, “previously described ([…] et al.” for “previously described (Charafe-Jauffret et al.”

[4] = test system: CD44+/CD24- cell population of MC1, UM2, UM3 xenografts; experiment: CD44+/CD24- cells in treated tumors (flow cytometry); parameters: species or system NOD/SCID mice; details: mouse, in vivo
Protocol: Animal model. […] Cells from these tumors were transplanted orthotopically in the humanized cleared fat-pad of NOD/SCID mice, without cultivation in vitro. […] 50,000 cells from each xenotransplants were injected in the humanized fat pad of NOD/SCID mice and monitored the tumor growth. […] The animals were euthanized when the tumors were approximately 1.5 cm in the largest diameter, to avoid tumor necrosis and in compliance with regulations for use of vertebrate animal in research. A portion of each fat pad injected was fixed in formalin and embedded in paraffin for histological analysis. The rest of the tumor cells were re-implantated into secondary NOD/SCID mice. Serial dilutions of cells were utilized for the re-implantation with injection of 10,000, 1,000, and 100 cells for each treated tumor.
as §1

FOXO3A [5] = experiment: Immunofluorescence staining of FOXO3A localization in SUM159 cells; assay type: cell-based, human
Protocol: The non-treated SUM159 cells presented 80% of cells positive in the cytoplasm for FOXOA3. […] The change in FOXOA3 cellular localation from the cytoplasm to the nucleus indicates an activation of FOXOA3 protein.
(§3) Immunostaining. For immunofluorescent staining, sorted CXCR1-positive cells were fixed with 95% methanol at −20° C. for 10 minutes. Cells were rehydrated in PBS and incubated with respective antibodies at room temperature for 1 hour. Primary antibodies used were P-FAK (1:50, Cell Signaling Technology), P-AKT (1:300, Cell Signaling Technology), and FOXO3a (1:250, Cell Signaling Technology). Slides were then washed and incubated 30 minutes with PE conjugated secondary antibodies (Jackson labs). The nuclei were counterstained with DAPI/antifade (Invitrogen) and coverslipped. […] Immunohistochemistry for the detection of ALDH1 (1:100, BD biosciences), P-FAK, P-AKT, FOXO3a expression was done on paraffin section (Ginestier et al. Am. J Pathol. 161:1223-1233, herein incorporated by reference in its entirety). Staining was done utilizing the Histostainplus kit (Zymed laboratories). Diaminobenzidine (DAB) or 3-amino-9-ethylcarbazole (AEC) was used as chromogen and sections were counterstained with hematoxylin.

[6] = test system: CXCR1-positive population of SUM159 cells; experiment: Flow cytometry of the CXCR1-positive population of SUM159 cells; assay type: cell-based, human; details: repertaxin, repertaxin plus anti-FAS-ligand, FAS agonist
Protocol: as §1

ALDH1 = experiment: Immunohistochemistry of ALDH1 in xenotransplants; assay type: in vivo, NOD/SCID mice; details: compared to untreated tumors
Protocol: as §3

[7] = test system: FAK Tyr397 and AKT Ser473 phosphorylation; experiment: Western blotting of FAK/AKT activation in HCC1954; assay type: cell-based, human; details: 100 nM, two days
Protocol: Western blotting. Cells were lysed in a laemmli buffer and loaded onto SDS-polyacrylamide gels. Blots were incubated with the respective primary antibodies diluted in TBST (containing 0.1% Tween20 and 2% BSA) either overnight at 4o, or 2 hours at room temperature. Blots were washed and incubated with appropriate secondary antibodies (GE Healthcare, UK) and detected using SuperSignal West Pico Chemiluminescent Substrate (Pierce).

[8] = test system: normal mammary epithelial cells from reduction mammoplasties; experiment: MTT assay on normal mammary epithelial cells; assay type: cell-based, human; details: adherent; five days; repertaxin 100 nM or 500 nM, FAS agonist 500 ng/ml
Protocol: Dissociation of mammary tissue. 100-200 g of normal breast tissue from reduction mammoplasties was minced with scalpels, dissociated enzymatically, and single cells were cultured in suspension to generate mammospheres or on a collagen substratum in adherent condition to induce cellular differentiation (Dontu et al. Genes Dev. 17:1253-1270, herein incorporated by reference in its entirety).
(§4) Cell viability. […] After one day, treatment with repertaxin was started. […]. […] Nuclei were counterstained with DAPI/antifade (Invitrogen).

MDA-MB-453 cells [9] = experiment: MTT assay, cell viability of MDA-MB-453 cells; assay type: cell-based, human; details: MDA-MB-453 (PTEN mutation), repertaxin 100 nM
Description: as §4

[10] = phase I and phase II clinical trials, cited from earlier work
FOXO3A [11] = experiment: Immunohistochemistry of FOXO3A in xenotransplants; parameters: species or system NOD/SCID mice; details: mouse, in vivo
Protocol: as §3

## CC(C)Cc1ccc([C@@H](C)C(=O)NS(C)(=O)=O)cc1 [Repertaxin]
[1]
  mammosphere formation by normal mammary epithelial cells: significantly decreased mammosphere formation; also recorded: significant decrease of mammosphere-initiating cells
[2]
  cell viability of the unsorted / unseparated population: massive cell death
[2]; listed as repertaxin
  cell viability of the unsorted / unseparated population: decrease in cell viability
[2]; sorted SUM159 cells
  cell viability of the CXCR1-negative population: no effect
  cell viability of the CXCR1-positive population: decreased cell viability
[2]; sorted SUM159 cells, listed as repertaxin
  cell viability of the CXCR1-positive population: decrease in cell viability
SUM159 cells
  metastasis formation (normalized photon flux): statistically significant increase of metastasis formation in the group of mice treated with saline solution; also recorded: significantly reduced metastasis formation; also recorded: reduces the metastatic potential
SUM159 cells; listed as repertaxin
  metastasis formation (normalized photon flux): statistically significant decrease in metastasis formation
MDA-MB-453 cells [3]
  metastasis formation (normalized photon flux): did not have any effect on metastasis formation
[4]
  percent of CD44+/CD24- cells in residual tumors: reduction
FOXO3A [5]; SUM159, 100 nM, 2 days
  cells positive in the nucleus for FOXOA3: 80%
FOXO3A [5]; sorted CXCR1-positive cells, listed as repertaxin
  FOXO3A localization (immunofluorescence): shuttled to the nucleus; also recorded: re-localization of FOXO3A to the nucleus
[6]
  percent of CXCR1-positive cells: massive decrease
ALDH1
  ALDH1-positive cells / ALDH1 expression in treated tumors: decrease in ALDH1-positive cells; also recorded: decrease of ALDH1 expression
[7]
  FAK Tyr397 and AKT Ser473 phosphorylation (western blot): decrease in FAK Tyr397 and AKT Ser473 phosphorylation
[7]; listed as repertaxin
  FAK Tyr397 and AKT Ser473 phosphorylation (western blot): decrease in FAK Tyr^397 and AKT Ser^473 phosphorylation
[8]
  viability of normal mammary epithelial cells (MTT): no effect
MDA-MB-453 cells [9]
  cell viability (MTT): no effect; also recorded: did not have any effect on cell viability
MDA-MB-453 cells [9]; listed as repertaxin
  cell viability (MTT): did not effect the viability
[10]
  toxicity in clinical studies: lack of toxicity
[10]; listed as Repartaxin
  toxicity in clinical studies: little toxicity
FOXO3A [11]
  nuclear FOXO3A in treated tumors: detected
